Columns and labels:
[1] = system: differentiated L6-myotubes; assay: cAMP production relative to isoprenaline (Biological example 2 of WO 2019/053427); assay type: cell-based; conditions: 0.25 h, compound at 10 μM, activity relative to isoproterenol at 10 μM
Outline: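 Differentiated L6 myotubes stimulated 15 min with test compound or isoprenaline, each at final 1×10^−5 M, in HBSS with 1% BSA, 5 mM HEPES, 1 mM IBMX, pH 7.4. cAMP production by the compound expressed relative to that induced by the same concentration of isoprenaline.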

[2] = system: differentiated L6-myotubes; assay: Glucose uptake screen (Biological example 1 of WO 2019/053427); assay type: cell-based; conditions: compound at 10 μM, activity relative to isoproterenol at 10 μM, read-out: Biological example 1 of WO 2019/053427 (GU)
Outline: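 Rat L6 myoblasts were differentiated into myotubes over 7 days in 2% FBS, then serum-starved overnight. Cells were stimulated with 1×10^−5 M compound plus β2 antagonist ICI-118551 for 1 h 40 min and re-dosed for 20 min in glucose-free medium. Uptake of 50 nM ^3H-2-deoxyglucose over 10 min was counted after NaOH lysis.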

SMILES | Emax at 10 µM [1] [%] | Emax at 10 µM [2] [%]
CCC[C@@H]1CCC[C@H]([C@H](O)c2ccccc2F)N1 [Compound 97, (R)-[(2R,6R)-6-propyl-2-piperidyl](o-fluorophenyl)methanol] | < 25 | 50 to 75
CC(C)(C[C@H]1CC[C@@H](NC(=O)OC(C)(C)C)CC1)NC[C@H](O)c1cccc(C(F)(F)F)n1 [Compound 450, (1R,4s)-4-(2-{(S)-2-hydroxy-2-[6-(trifluoromethyl)-2-pyridyl]ethylamino}-2-methylpropyl)cyclohexyl 2-methyl-2-propanecarbamate] | < 25 | < 25
COc1ccc(C[C@@H]2CC[C@H]([C@H](O)c3cccc(F)c3)N2)cc1 [Compound 373, (R)-{(2R,5S)-5-[(p-methoxyphenyl)methyl]-2-pyrrolidinyl}(m-fluorophenyl)methanol] | 25 to 50 | > 75
CC(C)(C[C@H]1CC[C@@H](NS(C)(=O)=O)CC1)NC[C@H](O)c1cccc(F)c1 [Compound 453, (R)-2-{1,1-dimethyl-2-[(1s,4S)-4-(mesylamino)cyclohexyl]ethylamino}-1-(m-fluorophenyl)-1-ethanol] | < 25 | > 75
CC1(C)CC[C@H]([C@@H](O)c2ccccc2F)N1 [Compound 174, (S)-[(R)-5,5-dimethyl-2-pyrrolidinyl](o-fluorophenyl)methanol] | < 25 | < 25
CC12CCC([C@H](O)c3ccncc3F)(CC1)N2 [Compound 254, (R)-(3-fluoro-4-pyridyl)(4-methyl-7-azabicyclo[2.2.1]hept-1-yl)methanol] | < 25 | < 25
CCC[C@@H]1CCC[C@@H]([C@@H](O)c2cccc(Cl)c2)N1 [Compound 114, (S)-[(2S,6R)-6-propyl-2-piperidyl](m-chlorophenyl)methanol] | < 25 | 25 to 50
CCCCNC[C@H](O)c1ccc(F)c(O)c1 [Compound 85, (R)-2-(butylamino)-1-(4-fluoro-3-hydroxyphenyl)-1-ethanol] | < 25 | > 75
CO[C@H]1CC[C@H](C[C@H]2CC[C@H]([C@@H](O)c3cccc(F)c3)N2)CC1 [Compound 334, (S)-[(2R,5R)-5-{[(1r,4R)-4-methoxycyclohexyl]methyl}-2-pyrrolidinyl](m-fluorophenyl)methanol] | < 25 | 25 to 50
CC1(C)CC[C@H]([C@H](O)c2cccc(Cl)c2)N1 [Compound 154, (R)-[(R)-5,5-dimethyl-2-pyrrolidinyl](m-chlorophenyl)methanol] | < 25 | > 75
CC(C)(C)NC[C@H](O)c1cccc(F)c1F [Compound 76, (R)-2-(tert-butylamino)-1-(2,3-difluorophenyl)-1-ethanol] | 25 to 50 | > 75
CC(C)(C)NC[C@H](O)c1ccc(F)c(N)c1F [Compound 149, (R)-1-(3-amino-2,4-difluorophenyl)-2-(tert-butylamino)-1-ethanol] | 25 to 50 | > 75
CS(=O)(=O)N(Cc1ccccc1)[C@H]1CC[C@@H](C[C@@H]2CC[C@H]([C@H](O)c3cccc(F)c3)N2)CC1 [Compound 508, (R)-[(2R,5S)-5-({(1s,4R)-4-[(benzyl)-N-mesylamino]cyclohexyl}methyl)-2-pyrrolidinyl](m-fluorophenyl)methanol] | < 25 | < 25
O[C@@H](CNC[C@H]1CC[C@H](OCc2ccccc2)CC1)c1cccc(F)c1 [Compound 271, (R)-1-(m-fluorophenyl)-2-({[(1r,4R)-4-(benzyloxy)cyclohexyl]methyl}amino)-1-ethanol] | < 25 | 25 to 50
O[C@@H](c1cccc(F)c1)C12CCC(COc3ccc(Cl)cc3)(CC1)N2 [Compound 440, (S)-{4-[(p-chlorophenoxy)methyl]-7-azabicyclo[2.2.1]hept-1-yl}(m-fluorophenyl)methanol] | < 25 | > 75
CC(=O)N(Cc1ccccc1)[C@H]1CC[C@H](C[C@@H]2CC[C@H]([C@@H](O)c3cccc(F)c3)N2)CC1 [Compound 481, N-[(1S,4r)-4-({(2S,5R)-5-[(S)-(m-fluorophenyl)hydroxymethyl]-2-pyrrolidinyl}methyl)cyclohexyl]-N-benzylacetamide] | < 25 | < 25
O[C@@H](CNCC[C@H]1CC[C@H](O)CC1)c1cncc(F)c1 [Compound 294, (R)-1-(5-fluoro-3-pyridyl)-2-{2-[(1r,4R)-4-hydroxycyclohexyl]ethylamino}-1-ethanol] | < 25 | 25 to 50
CC1(C)CC[C@H]([C@H](O)c2cncc(F)c2)N1 [Compound 157, (R)-[(R)-5,5-dimethyl-2-pyrrolidinyl](5-fluoro-3-pyridyl)methanol] | < 25 | > 75

SMILES | Emax at 10 µM [1] [%] | Emax at 10 µM [2] [%]
CCC[C@H]1CC[C@H]([C@H](O)c2cccc(O)c2)N1 [Compound 125, m-{(R)-[(2R,5S)-5-propyl-2-pyrrolidinyl]hydroxymeth-yl}phenol] | < 25 | 50 to 75
O[C@@H](CNCC[C@H]1CC[C@H](OCc2ccccc2)CC1)c1cncc(F)c1 [Compound 292, (R)-1-(5-fluoro-3-pyridyl)-2-{2-[(1r,4R)-4-(benzyloxy)cyclohexyl]ethylamino}-1-ethanol] | < 25 | < 25
CC(C)(C[C@H]1CC[C@@H](NS(C)(=O)=O)CC1)NC[C@H](O)c1cccc(C(F)(F)F)n1 [Compound 463, (S)-2-{1,1-dimethyl-2-[(1s,4R)-4-(mesylamino)cyclohexyl]ethylamino}-1-[6-(trifluoromethyl)-2-pyridyl]-1-ethanol] | < 25 | 50 to 75
COc1ccc(CCC23CCC([C@@H](O)c4cncc(F)c4)(CC2)N3)cc1 [Compound 541, (S)-(5-fluoro-3-pyridyl){4-[2-(p-methoxyphenyl)ethyl]-7-azabicyclo[2.2.1]hept-1-yl}methanol] | < 25 | < 25
CC1(C)CC[C@@H]([C@@H](O)c2cccc(F)c2)N1 [Compound 145, (S)-[(S)-5,5-dimethyl-2-pyrrolidinyl](m-fluorophenyl)methanol] | < 25 | 25 to 50
CC(C)(C[C@H]1CC[C@H](NC(=O)C(C)(C)C)CC1)NC[C@H](O)c1cccc(F)c1 [Compound 429, N-[(1R,4r)-4-{2-[(R)-2-(m-fluorophenyl)-2-hdyroxyethylamino]-2-methylpropyl}cyclohexyl]2,2-dimethylpropionamide] | 25 to 50 | > 75
COc1ccc(C[C@@]2(C)CC[C@H]([C@@H](O)c3cccc(F)c3)N2)cc1 [Compound 365, (S)-{(2R,5R)-5-[(p-methoxyphenyl)methyl]-5-methyl-2-pyrrolidinyl}(m-fluorophenyl)methanol] | < 25 | > 75
CN([C@H]1CC[C@H](CC(C)(C)NC[C@H](O)c2cncc(F)c2)CC1)S(C)(=O)=O [Compound 521, (R)-2-{1,1-dimethyl-2-[(1r,4R)-4-(N-mesyl-N-methylamino)cyclohexyl]ethylamino}-1-(5-fluoro-3-pyridyl)-1-ethanol] | < 25 | 50 to 75
CCCCNCC(O)c1cc(F)c(N)c(F)c1 (stereo not shown) [Compound 37, 1-(4-amino-3,5-difluorophenyl)-2-(butylamino)-1-ethanol] | > 75 | > 75
O[C@@H](c1cncc(F)c1)[C@H]1CC[C@@H](Cc2ccc(Cl)cc2)N1 [Compound 403, (S)-{(2R,5S)-5-[(p-chlorophenyl)methyl]-2-pyrroldiinyl}(5-fluoro-3-pyridyl)methanol] | < 25 | 50 to 75
O[C@@H](CNCCC[C@H]1CC[C@@H](O)CC1)c1cccc(F)c1 [Compound 306, (R)-1-(m-fluorophenyl)-2-{3-[(1s,4R)-4-hydroxycyclohexyl]propylamino}-1-ethanol] | < 25 | 25 to 50
CCCCNC(C)C(O)c1ccc(O)cc1 (stereo not shown) [Compound 12, 2-(butylamino)-1-(p-hydroxyphenyl)-1-propanol] | < 25 | 50 to 75
CC1(C)C[C@H]([C@H](O)c2ccccc2F)N1 [Compound 204, (R)-[(R)-4,4-dimethyl-2-azetidinyl](o-fluorophenyl)methanol] | 25 to 50 | > 75
CC(C)(C[C@H]1CC[C@@H](NC(=O)C2CC2)CC1)NC[C@H](O)c1cccc(F)c1 [Compound 447, N-[(1S,4s)-4-{2-[(R)-2-(m-fluorophenyl)-2-hydroxyethylamino]-2-methylpropyl}cyclohexyl]cyclopropanecarboxamide] | < 25 | > 75
O[C@@H](c1cccc(F)c1)C12CCC(CCCc3ccccc3)(CC1)N2 [Compound 535, (S)-(m-fluorophenyl){4-(3-phenylpropyl)-7-azabicyclo[2.2.1]hept-1-yl}methanol] | < 25 | 25 to 50
CC1(NC[C@H](O)c2cccc(F)c2)CCC1 [Compound 83, (R)-1-(m-fluorophenyl)-2-(1-methylcyclobutylamino)-1-ethanol] | 25 to 50 | > 75
CC1(C)C[C@@H]([C@@H](O)c2cccc(Cl)c2)N1 [Compound 231, (S)-[(S)-4,4-dimethyl-2-azetidinyl](m-chlorophenyl)methanol] | < 25 | 25 to 50

Reference: US20260256751A1, “COMBINATION OF BETA-2-ADRENERGIC RECEPTOR AGONISTS AND GLP-1 RECEPTOR AGONISTS FOR USE IN TREATING HYPERGLYCAEMIA” (ATROGI AB, priority 2023, published 2026)
